In patent US20260042731A1, “(2,4-DICHLOROPHENOXY)ACETIC ACID ANALOGS” (CORTEVA AGRISCIENCE LLC, priority 2022, published 2026):
Where two headings read alike, the source gives them in different places.

Columns and labels:
[1] = Volatility of compounds measured by thermogravimetric analysis (TGA); type: physicochemical
[2] = tested on: Velvetleaf (ABUTH); experiment: Greenhouse post-emergence mixture trials, percent visual control; type: in vivo; conditions: Abutilon theophrasti, post-emergence, 504 h, ABUTH, 21 DAA; for pest or weed control at 150 g/ha: Mesotrione 150 g ai or ae/ha alone
[3] = tested on: Common Lambsquarters (CHEAL); experiment: as above; type: in vivo; conditions: CHEAL, 21 DAA
[4] = tested on: Abutilon theophrasti (ABUTH), velvetleaf; experiment: Postemergence herbicide evaluation, growth of Abutilon theophrasti (ABUTH); type: in vivo; conditions: Abutilon theophrasti, post-emergence, percent reduction in plant size vs untreated control, read-out: AVE. ABUTH; for pest or weed control at 280 g/ha: 280 g ae/ha; for pest or weed control at 560 g/ha: 560 g ae/ha
[5] = tested on: Ambrosia artemisiifolia (AMBEL), common ragweed; experiment: Postemergence herbicide evaluation, growth of Ambrosia artemisiifolia (AMBEL); type: in vivo; conditions: Ambrosia artemisiifolia, post-emergence, percent reduction in plant size vs untreated control, read-out: AVE. AMBEL; for pest or weed control at 280 g/ha: 280 g ae/ha; for pest or weed control at 560 g/ha: 560 g ae/ha
[6] = tested on: Chenopodium album (CHEAL), common lambsquarters; experiment: Postemergence herbicide evaluation, growth of Chenopodium album (CHEAL); type: in vivo; conditions: Chenopodium album, post-emergence, percent reduction in plant size vs untreated control, read-out: Ave. CHEAL; for pest or weed control at 280 g/ha: 280 g ae/ha; for pest or weed control at 560 g/ha: 560 g ae/ha
[7] = tested on: Amaranthus rudis (AMATA), tall water hemp; experiment: Postemergence herbicide evaluation, growth of Amaranthus rudis (AMATA); type: in vivo; conditions: Amaranthus tuberculatus, post-emergence, percent reduction in plant size vs untreated control, read-out: Ave. AMATA; for pest or weed control at 280 g/ha: 280 g ae/ha; for pest or weed control at 560 g/ha: 560 g ae/ha
[8] = tested on: weeds ABUTH, AMATA, AMBEL, CHEAL, ERICA; experiment: Postemergence herbicide evaluation, overall average % weed control across ABUTH, AMATA, AMBEL, CHEAL and ERICA; type: in vivo; conditions: post-emergence, average over five weeds, read-out: Overall Ave % Weed Control; for pest or weed control at 280 g/ha: 280 g ae/ha; for pest or weed control at 560 g/ha: 560 g ae/ha
[9] = tested on: glyphosate resistant Conyza canadensis (L.) (ERICA), horseweed; experiment: Postemergence herbicide evaluation, growth of Conyza canadensis (ERICA); type: in vivo; conditions: Erigeron canadensis, post-emergence, percent reduction in plant size vs untreated control, read-out: Ave. ERICA; for pest or weed control at 280 g/ha: 280 g ae/ha; for pest or weed control at 560 g/ha: 560 g ae/ha

O=C(COc1ccc(Cl)cc1Cl)Oc1ccncc1 [Compound E15]
TGA Data (rate of weight loss, volatility) [1]: 0.03683 µg/min

O=C(COc1ccc(Cl)cc1Cl)ONC(=O)c1ccc(Cl)cc1 [Compound A28]
TGA Data (rate of weight loss, volatility) [1]: 0.3455 µg/min

CS(=O)(=O)c1ccc(C(=O)C2C(=O)CCCC2=O)c([N+](=O)[O-])c1 [Mesotrione, 2-[4-(methylsulfonyl)-2-nitrobenzoyl]-1,3-cyclohexanedione, reference compound]
pest or weed control at 75 g/ha ([2]; Trial 2 Trt 25, B2 0 g ae/ha, Mesotrione 75 g ai or ae/ha alone): 100%
pest or weed control at 150 g/ha ([2]; Trial 2 Trt 28, B2 0 g ae/ha): 100%
pest or weed control at 150 g/ha ([2]; Trial Bridge 1 Trt 10, D10 0 g ae/ha): 100%
pest or weed control at 75 g/ha ([3]; Chenopodium album, post-emergence, 504 h, Trial 2 Trt 25: B2 0 g ae/ha, Mesotrione 75 g ai or ae/ha alone): 100%
pest or weed control at 150 g/ha ([3]; Chenopodium album, post-emergence, 504 h, Trial 2 Trt 28: B2 0 g ae/ha, Mesotrione 150 g ai or ae/ha alone): 100%
% Control ([3]; Trial Bridge 1, mixing partner alone (D10 at 0 g ae/ha), Mesotrione 150 g ai or ae/ha): 100%

O=C(COc1ccc(Cl)cc1Cl)OCOC(=O)COc1ccc(Cl)cc1Cl [Compound B15, Methylene bis(2-(2,4-dichlorophenoxy)acetate)]
TGA Data (rate of weight loss, volatility) [1]: 0.3 µg/min

O=C(COc1ccc(Cl)cc1Cl)ONC(=O)c1cccnc1 [Compound A19]
TGA Data (rate of weight loss, volatility) [1]: 0.348 µg/min

O=C(COc1ccc(Cl)cc1Cl)Oc1ccncn1 [Compound E8]
TGA Data (rate of weight loss, volatility) [1]: 0.7322 µg/min

O=C(COc1ccc(Cl)cc1Cl)O/N=C/c1cccs1 [Compound A23]
TGA Data (rate of weight loss, volatility) [1]: 0.3728 µg/min

Cc1nc2ccccc2n1C(=O)COc1ccc(Cl)cc1Cl [Compound D12]
pest or weed control at 280 g/ha ([4]; 168 h, 7 DAA): 47.5%
pest or weed control at 560 g/ha ([4]; 168 h, 7 DAA): 67.5%
pest or weed control at 280 g/ha ([4]; 336 h, 14 DAA): 67.5%
pest or weed control at 560 g/ha ([4]; 336 h, 14 DAA): 85%
pest or weed control at 280 g/ha ([4]; 504 h, 21 DAA): 67.5%
pest or weed control at 560 g/ha ([4]; 504 h, 21 DAA): 96.5%
pest or weed control at 280 g/ha ([5]; 168 h, 7 DAA): 75%
pest or weed control at 560 g/ha ([5]; 168 h, 7 DAA): 72.5%
pest or weed control at 280 g/ha ([5]; 336 h, 14 DAA): 67.5%
pest or weed control at 560 g/ha ([5]; 336 h, 14 DAA): 77.5%
pest or weed control at 280 g/ha ([5]; 504 h, 21 DAA): 100%
pest or weed control at 560 g/ha ([5]; 504 h, 21 DAA): 100%
pest or weed control at 280 g/ha ([6]; 168 h, 7 DAA): 80%
pest or weed control at 560 g/ha ([6]; 168 h, 7 DAA): 75%
pest or weed control at 280 g/ha ([6]; 336 h, 14 DAA): 98.5%
pest or weed control at 560 g/ha ([6]; 336 h, 14 DAA): 98.5%
pest or weed control at 280 g/ha ([6]; 504 h, 21 DAA): 90%
pest or weed control at 560 g/ha ([6]; 504 h, 21 DAA): 96%
pest or weed control at 280 g/ha ([7]; 168 h, 7 DAA): 62.5%
pest or weed control at 560 g/ha ([7]; 168 h, 7 DAA): 77.5%
pest or weed control at 280 g/ha ([7]; 336 h, 14 DAA): 87.5%
pest or weed control at 560 g/ha ([7]; 336 h, 14 DAA): 92.5%
pest or weed control at 280 g/ha ([7]; 504 h, 21 DAA): 65%
pest or weed control at 560 g/ha ([7]; 504 h, 21 DAA): 77.5%
pest or weed control at 280 g/ha ([8]; 168 h, 7 DAA): 70%
pest or weed control at 560 g/ha ([8]; 168 h, 7 DAA): 75.5%
pest or weed control at 280 g/ha ([8]; 336 h, 14 DAA): 83.9%
pest or weed control at 560 g/ha ([8]; 336 h, 14 DAA): 90.6%
pest or weed control at 280 g/ha ([8]; 504 h, 21 DAA): 84.5%
pest or weed control at 560 g/ha ([8]; 504 h, 21 DAA): 94%
pest or weed control at 280 g/ha ([9]; 168 h, 7 DAA): 85%
pest or weed control at 560 g/ha ([9]; 168 h, 7 DAA): 85%
pest or weed control at 280 g/ha ([9]; 336 h, 14 DAA): 98.5%
pest or weed control at 560 g/ha ([9]; 336 h, 14 DAA): 99.5%
pest or weed control at 280 g/ha ([9]; 504 h, 21 DAA): 100%
pest or weed control at 560 g/ha ([9]; 504 h, 21 DAA): 100%
